Results from patent US10633389B2, “CARM1 inhibitors and uses thereof” (Epizyme, Inc., priority 2013, dated 2020).

Experiments:
[1] = tested on: asymmetric di-methyl PABP1 in RKO cells; assay: RKO methylation assay, In Cell Western (ICW) for asymmetric di-methyl PABP1; assay type: cell-based; settings: Homo sapiens, RKO, Cellular potencies, ICW PABP1me2a
Outline: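 RKO cells treated with compound for 48 h at 37 °C, then fixed, permeabilized and immunostained for asymmetric di-methyl PABP1, with DRAQ5 as DNA stain. Infrared 700/800 nm signal ratio normalized to DMSO and 20 μM reference-compound controls; IC50 from triplicate wells.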

human CARM1 (PRMT4) = human CARM1 (PRMT4) (Homo sapiens (Human), UniProt Q86X55); assay: CARM1 enzyme assay on peptide substrate (3H-SAM Flashplate); settings: Biochemical potencies, read-out: Biochem IC50
Chain of human CARM1 (PRMT4) (Q86X55 other isoform, or with tags, fused parts or gaps isoform Q86X55-1): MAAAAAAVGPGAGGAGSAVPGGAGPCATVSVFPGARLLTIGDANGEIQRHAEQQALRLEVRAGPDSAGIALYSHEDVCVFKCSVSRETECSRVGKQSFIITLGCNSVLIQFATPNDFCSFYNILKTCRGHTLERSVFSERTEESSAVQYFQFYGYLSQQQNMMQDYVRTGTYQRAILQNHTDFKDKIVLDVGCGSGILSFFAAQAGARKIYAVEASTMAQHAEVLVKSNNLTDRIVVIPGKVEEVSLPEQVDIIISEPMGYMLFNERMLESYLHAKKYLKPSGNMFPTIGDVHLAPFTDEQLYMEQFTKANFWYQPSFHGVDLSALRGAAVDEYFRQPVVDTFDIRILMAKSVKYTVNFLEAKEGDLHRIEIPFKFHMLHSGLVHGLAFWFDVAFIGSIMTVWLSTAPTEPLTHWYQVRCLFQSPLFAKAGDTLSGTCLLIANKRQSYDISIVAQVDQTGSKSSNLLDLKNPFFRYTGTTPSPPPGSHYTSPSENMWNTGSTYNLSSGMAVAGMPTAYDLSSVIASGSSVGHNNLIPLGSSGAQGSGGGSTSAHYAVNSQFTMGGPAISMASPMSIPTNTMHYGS

Row | Structure (SMILES) | IC50 [1] | IC50 (human CARM1 (PRMT4))
1 | CNCC(O)COc1cc(Cl)cc(-c2nc(N[C@@H]3CCOC3)c(C)c(C(=O)NCC3CCOCC3)n2)c1 (stereo partly drawn) [Example 336-1a] | 10 to 20 µM | 0.1 to 1 µM
2 | CNCC(O)COc1cccc(-c2nc(C3CCN(C(=O)OC)CC3)cc(N(C)C3CCOCC3)n2)c1 (stereo not drawn) [Example 533-1a] | 5 to 10 µM | 0.1 to 1 µM
3 | CNCC(O)COc1cccc(-c2nc(-c3cnn(CC(C)C)c3)cc(N(CCOC)CCOC)n2)c1 (stereo not drawn) [Example 631-1a] | ≥ 20 µM | 1 to 3 µM
4 | CNCC(O)COc1cccc(-c2nc(N[C@@H]3CCOC3)c(C)c(-c3cnc(=O)[nH]c3)n2)c1 (stereo partly drawn) [Example 357-1a] | 10 to 20 µM | 0.1 to 1 µM
5 | CNCC(O)COc1cccc(-c2nc(NC3(C(=O)NC)CCOC3)c(C)c(-c3c(C)noc3C)n2)c1 (stereo not drawn) [Example 113-1a] | 10 to 20 µM | 3 to 10 µM
6 | CNCC(O)COc1cccc(-c2nc(NCC3CCNCC3)cc(-c3ccncc3)n2)c1 (stereo not drawn) [Example 662-1a] | ≥ 20 µM | 0.1 to 1 µM
7 | CNCC(O)COc1cccc(-c2nc(-c3c(C)noc3C)c(C)c(N3CCO[C@H](CN(C)C(=O)N(C)C)C3)n2)c1 (stereo partly drawn) [Example 128-1a] | 5 to 10 µM | 0.1 to 1 µM
8 | CNCC(O)COc1cccc(-c2nc(NCCOC)cc(-c3ccc4c(c3)OCCO4)n2)c1 (stereo not drawn) [Example 628-1a] | ≥ 20 µM | 0.1 to 1 µM
9 | CNCC(O)COc1cccc(-c2nc(NC3CCOCC3)cc(-c3ccnc(OC)c3)n2)c1 (stereo not drawn) [Example 653-1a] | ≥ 20 µM | 1 to 3 µM
10 | CNCC(O)COc1cccc(-c2nc(N[C@@H]3CCOC3)c(C)c(N(CCC#N)C3CC3)n2)c1 (stereo partly drawn) [Example 426-1a] | 10 to 20 µM | 0.1 to 1 µM
11 | CNCC(O)COc1cccc(-c2nc(NC3CCOCC3)c(C)c(-c3c(C)nn(C)c3C)n2)c1 (stereo not drawn) [Example 678-1a] | ≥ 20 µM | 0.1 to 1 µM
12 | CNCC(O)COc1cccc(-c2nc(NC3CCNCC3)cc(-c3ccncc3)n2)c1 (stereo not drawn) [Example 666-1a] | ≥ 20 µM | 0.1 to 1 µM
13 | CNCC(O)COc1cccc(-c2nc(C(=O)NC3CCOCC3)cc(N(C)C3CCOCC3)n2)c1 (stereo not drawn) [Example 530-1a] | 5 to 10 µM | 0.1 to 1 µM
14 | CNCC(O)COc1cccc(-c2nc(-c3c(C)noc3C)cc(N(C)C(C)=O)n2)c1 (stereo not drawn) [Example 64-1a] | 10 to 20 µM | 0.1 to 1 µM
15 | CNCC(O)COc1cccc(-c2nc(N[C@@H]3CCOC3)c(C)c(-c3cccnc3F)n2)c1 (stereo partly drawn) [Example 348-1a] | 10 to 20 µM | 0.1 to 1 µM
16 | CNCC(O)COc1cccc(-c2nc(N[C@@H]3CCOC3)c(C)c(-c3c(C)nn(C)c3C)n2)c1 (stereo partly drawn) [Example 354-1a] | 10 to 20 µM | 0.1 to 1 µM
17 | CNCC(O)COc1cccc(-c2nc(N3CCN(C(C)=O)C4(CC4)C3)cc(N(C)C3CCOCC3)n2)c1 (stereo not drawn) [Example 523-1a] | 5 to 10 µM | 0.1 to 1 µM
18 | CNCC(O)COc1cccc(-c2nc(N3CCN(CC(F)F)CC3)cc(N(C)C3CCOCC3)n2)c1 (stereo not drawn) [Example 518-1a] | 5 to 10 µM | 0.1 to 1 µM
19 | COC(=O)N1CC[C@H](Nc2nc(-c3cc(OC[C@H](O)CN(C)C)ccc3Cl)nc(-c3c(C)noc3C)c2C)C[C@@H]1C [Example 193-3] | ≥ 20 µM | 0.1 to 1 µM
20 | CNCC(O)COc1cccc(-c2nc(NC3CCOCC3)c(C(F)F)c(-c3c(C)noc3C)n2)c1 (stereo not drawn) [Example 214-1a] | 5 to 10 µM | 0.1 to 1 µM
21 | CNCC(O)COc1cccc(-c2nc(NC3CCOCC3)c(C)c(N3CCN(S(C)(=O)=O)CC3)n2)c1 (stereo not drawn) [Example 660-1a] | ≥ 20 µM | 1 to 3 µM
22 | CNCC(O)COc1cccc(-c2nc(NC3CCOCC3)cc(-c3c(C)nn(C)c3C)n2)c1 (stereo not drawn) [Example 675-1a] | ≥ 20 µM | 0.1 to 1 µM
23 | CNCC(O)COc1cccc(-c2nc(N[C@@H]3CCOC3)c(C)c(N3CCC(OCCOC)CC3)n2)c1 (stereo partly drawn) [Example 386-1a] | 10 to 20 µM | 3 to 10 µM
24 | CNCC(O)COc1cccc(-c2nc(N3CCOCC3)cc(N(C3CC3)[C@@H]3CCOC3)n2)c1 (stereo partly drawn) [Example 360-1a] | 10 to 20 µM | 0.1 to 1 µM
25 | CNCC(O)COc1cccc(-c2nc(C3CCN(C(C)=O)CC3)cc(N(C)C3CCOCC3)n2)c1 (stereo not drawn) [Example 546-1a] | 10 to 20 µM | 0.1 to 1 µM
26 | CNCC(O)COc1cccc(-c2nc(-c3c(C)noc3C)c(C)c(-c3c(C)noc3C)n2)c1 (stereo not drawn) [Example 25-1a] | 10 to 20 µM | 0.1 to 1 µM

Row | Structure (SMILES) | IC50 [1] | IC50 (human CARM1 (PRMT4))
27 | CNCC(O)COc1cccc(-c2nc(C(=O)N(C)C)cc(N(C)C3CCOCC3)n2)c1 (stereo not drawn) [Example 593-1a] | 10 to 20 µM | 0.1 to 1 µM
28 | CNCC(O)COc1cccc(-c2nc(NCC3CCOCC3)cc(N(C)C3CCOCC3)n2)c1 (stereo not drawn) [Example 540-1a] | 10 to 20 µM | 0.1 to 1 µM
29 | CNCC(O)COc1cccc(-c2nc(N[C@@H]3CCOC3)c(C)c(-c3ccnc(N4CCC4)c3)n2)c1 (stereo partly drawn) [Example 407-1a] | 10 to 20 µM | 0.1 to 1 µM
30 | CNCC(O)COc1ccc(C)c(-c2nc(NC3CCOCC3)c(C)c(-c3c(C)noc3C)n2)c1 (stereo not drawn) [Example 123-3] | 10 to 20 µM | 0.1 to 1 µM
31 | CNCC(O)COc1cc(-c2nc(NC3CCOCC3)c(C)c(-c3c(C)noc3C)n2)ccc1F (stereo not drawn) [Example 52-3] | ≥ 20 µM | 0.1 to 1 µM
32 | CNCC(O)COc1cccc(-c2nc(N[C@@H]3CCOC3)c(C)c(-c3ccnc(OCCOC)c3)n2)c1 (stereo partly drawn) [Example 406-1a] | 5 to 10 µM | 0.1 to 1 µM
33 | CNCC(O)COc1cc(Cl)cc(-c2nc(C(=O)N(C)C)cc(N(C)C3CCOCC3)n2)c1 (stereo not drawn) [Example 557-1a] | 10 to 20 µM | 0.1 to 1 µM
34 | CNCC(O)COc1cccc(-c2nc(NC3CCOC3)c(C)c(C(=O)N(C)C3CCOCC3)n2)c1 (stereo not drawn) [Example 402-1a] | 10 to 20 µM | 3 to 10 µM
35 | CNCC(O)COc1cccc(-c2nc(N[C@@H]3CCOC3)c(C)c(N3CCC(C)(O)CC3)n2)c1 (stereo partly drawn) [Example 385-1a] | 10 to 20 µM | 0.1 to 1 µM
36 | CNCC(O)COc1cccc(-c2nc(-c3nc[nH]c3C)cc(N(C)C3CCOCC3)n2)c1 (stereo not drawn) [Example 603-1a] | 10 to 20 µM | 1 to 3 µM
37 | CNCC(O)COc1cccc(-c2nc(C(=O)N3CCOCC3)cc(N(C)C3CCOCC3)n2)c1 (stereo not drawn) [Example 604-1a] | 10 to 20 µM | 1 to 3 µM
38 | CNCC(O)COc1cccc(-c2nc(NC3CCOC3)c(C)c(N3CCCC4(CCOCC4)C3)n2)c1 (stereo not drawn) [Example 401-1a] | 10 to 20 µM | 0.1 to 1 µM
39 | CNCC(O)COc1cccc(-c2nc(N[C@@H]3CC[C@@H](O)C3)cc(N(C)C3CCOCC3)n2)c1 (stereo partly drawn) [Example 600-1a] | 10 to 20 µM | 0.1 to 1 µM
40 | CNCC(O)COc1cc(Cl)cc(-c2nc(-c3c[nH]c4ccccc34)c(C)c(N(C)C3CCOCC3)n2)c1 (stereo not drawn) [Example 625-1a] | 10 to 20 µM | 0.1 to 1 µM
41 | CNCC(O)COc1cccc(-c2nc(NC3CCOCC3)cc(-c3ccc(C(F)(F)F)nc3)n2)c1 (stereo not drawn) [Example 654-1a] | ≥ 20 µM | 0.1 to 1 µM
42 | CNCC(O)COc1cccc(-c2nc(Nc3ncc(OC)cn3)cc(N(C)C3CCOCC3)n2)c1 (stereo not drawn) [Example 551-1a] | 10 to 20 µM | 0.1 to 1 µM
43 | CNCC(O)COc1cccc(-c2nc(N[C@H]3C[C@@H](C(=O)O)C3)c(C)c(-c3c(C)noc3C)n2)c1 (stereo partly drawn) [Example 223-1a] | 10 to 20 µM | 1 to 3 µM
44 | CNCC(O)COc1cccc(-c2nc(-c3c(C)ncnc3C)cc(N(C)C3CCOCC3)n2)c1 (stereo not drawn) [Example 556-1a] | 10 to 20 µM | 0.1 to 1 µM
45 | CNCC(O)COc1cccc(-c2nc(N3CCN(C(=O)OC)CC3)cc(N(C)C3CCOCC3)n2)c1 (stereo not drawn) [Example 585-1a] | 10 to 20 µM | 0.1 to 1 µM
46 | CNCC(O)COc1cccc(-c2nc(NCC3(CCl)CCOCC3)cc(N(C)C3CCOCC3)n2)c1 (stereo not drawn) [Example 584-1a] | 10 to 20 µM | 0.1 to 1 µM
47 | CNCC(O)COc1cccc(-c2nc(-c3ccncc3)cc(N(C)C3CCN(C)CC3)n2)c1 (stereo not drawn) [Example 674-1a] | ≥ 20 µM | 0.1 to 1 µM
48 | CNCC(O)COc1cccc(-c2nc(-c3c(C)noc3C)c(C)c(N3CCC[C@@H](N(C)C(=O)OC)C3)n2)c1 (stereo partly drawn) [Example 180-1a] | 10 to 20 µM | 0.1 to 1 µM
49 | CNCC(O)COc1cccc(-c2nc(N(C)c3cnc(C(F)(F)F)nc3)cc(N(C)C3CCOCC3)n2)c1 (stereo not drawn) [Example 587-1a] | 10 to 20 µM | 0.1 to 1 µM
50 | CNCC(O)COc1cccc(-c2nc(NCCOC)cc(C3=CCCC3)n2)c1 (stereo not drawn) [Example 667-1a] | ≥ 20 µM | 0.1 to 1 µM
51 | CNCC(O)COc1cc(Cl)cc(-c2nc(C(=O)O)cc(N(C)C3CCOCC3)n2)c1 (stereo not drawn) [Example 608-1a] | 10 to 20 µM | 3 to 10 µM
